Experiments:
[1] = pH dependence of dye fluorescence; format: physicochemical
Excerpt: The assays employ a pH-sensing cyanine dye, which is minimally fluorescent at neutral pH outside the cell, but highly fluorescent in the acidic environment (pKa ˜7.3; excitation peak 650 nm/emission peak 670 nm). In most instances, the lipoproteins or modified lipoproteins are taken up by cell-surface receptors through the process of receptor-mediated endocytosis. Once internalized, lipoproteins are transported to highly acidic vesicles. When labeled with CypHer5E dye, lipoproteins are minimally fluorescent at neutral pH outside the cell, but highly fluorescent in the acidic environment of the uptake vesicle. This translates into high signal-to-noise ratio compared to traditional dyes that are equally fluorescent inside or outside the cell. Additionally, the disclosed methods eliminate washing steps required for removal of excess of labeled lipoprotein in the media at the end of the protocol. […]
CypHer5E dye is 3 to 20 times more fluorescent in the acidic environment of the intracellular vesicles than at neutral pH outside the cell (pKa ˜7.3; excitation peak 650 nm/emission peak 670 nm). CypHer5E dye fluorescence is enhanced by the acidic conditions of lipoprotein-containing intracellular vesicles after receptor-mediated lipoprotein after the CypHer5E-AcLDL is internalized.

[2] = target: T1, scavenger receptor A (SR-A, CD204) (Mus musculus, UniProt P30204); assay: Inhibition of CypHer5E-AcLDL uptake by known SR-A ligands; format: cell-based; conditions: RAW264.7 mouse macrophages, FIG. 7
T1 construct: endogenous in cells; host or cells: RAW264.7 mouse macrophages
T1 sequence (P30204 1-458): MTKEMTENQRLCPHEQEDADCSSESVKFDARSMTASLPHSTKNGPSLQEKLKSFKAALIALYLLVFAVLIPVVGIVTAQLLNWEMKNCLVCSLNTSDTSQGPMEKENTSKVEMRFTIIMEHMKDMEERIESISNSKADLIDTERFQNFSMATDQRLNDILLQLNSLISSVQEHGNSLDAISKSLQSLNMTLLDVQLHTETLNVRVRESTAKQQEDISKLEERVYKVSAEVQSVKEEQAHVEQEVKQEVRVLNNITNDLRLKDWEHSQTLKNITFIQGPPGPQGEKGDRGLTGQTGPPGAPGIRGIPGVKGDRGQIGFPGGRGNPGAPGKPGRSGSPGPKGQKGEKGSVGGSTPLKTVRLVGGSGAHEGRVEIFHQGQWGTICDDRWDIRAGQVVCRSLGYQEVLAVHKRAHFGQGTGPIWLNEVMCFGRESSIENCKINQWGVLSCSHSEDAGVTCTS
Procedure: RAW264.7 Mouse Macrophages, J774A.1 Mouse Macrophages, U-2 OS Human Osteosarcoma Cells were seeded in standard cell culture flasks and cultured in Dulbecco's Modified Eagle Medium (DMEM) with 10% fetal bovine serum (FBS) until about 70% to about 80% confluent. On the day of the assay, the cells were washed twice with serum-free DMEM, and incubated for 30 minutes in cell culture incubator in DMEM containing 1 μM Cell Tracker Green dye. After staining with Cell Tracker Green dye, cells were washed three times with serum-free DMEM, scraped from tissue culture flask, and resuspended in DMEM with 12.5% Fetal Bovine Lipoprotein Deficient Serum (FBLDS) at 250,000 cells/ml.
80 μl of Cell Tracker Green-labeled cells at 250,000 cells/ml were added to each well of ViewPlate 96-well plate in DMEM with 12.5% Fetal Bovine Lipoprotein Deficient Serum (FBLDS). For inhibitor studies, 10 μl of 10-fold stock of the inhibitor in DMEM containing 10% dimethyl sulfoxide (DMSO) were added to each well. 10 μl of DMEM containing 10% DMSO were added for control wells. Cells were pre-incubated for 30 minutes at 37° C. in a cell culture incubator in the presence of the inhibitor before addition of labeled AcLDL. At the end of pre-incubation period, 10 μl of 100 μg/ml CypHer5E-AcLdL solution were added to each well. The incubation continued for another 2 to 18 hours at 37° C. in cell culture incubator before imaging. The Dil AcLDL complex assay was identical to CypHer5E-AcLDL assay except that Dil AcLDL complex was added to cells in place of CypHer5E-AcLDL conjugate.
Following incubation, images of CypHer5E-AcLDL uptake were acquired on IN Cell Analyzer 1000 or 3000 (GE Healthcare) using a 10× or 20× objective and FITC/Cy5 excitation/emission filters. Analysis was performed using Granularity Analysis and Object Intensity Analysis Modules within IN Cell Analyzer system software suite or using Developer™ Image Analysis software.

| pKa [1] | inhibition of pH-sensing cyanine dye conjugate uptake (in words) [2] | Molecule |
| --- | --- | --- |
| ~7.3 | – | CC1(C)C(/C=C/C=C/C=C2/Nc3ccc(S(=O)(=O)O)cc3C2(C)CCCCCC(=O)O)=[N+](CCCCS(=O)(=O)[O-])c2ccc(S(=O)(=O)O)cc21 (stereo not shown) [CypHer5E, 2-{[1E,3E,5E)-5-(3-methyl-3-(5-carboxypentyl)-5-sulfo-1,3-dihydro-2H-indol-2-ylidene]-1,3-pentadienyl}-3,3-dimethyl-5-sulfo-1-(4-sulfobutyl)-3H-indolium] |
| – | inhibition | Dextran Sulfate MW 500,000 [Dex SO4] |
| – | inhibition | Polyguanylic acid potassium salt [poly G] |
| – | inhibition | Polyinosinic acid potassium salt [poly I] |

Reference: US7846735B2, “Compositions and methods for lipoprotein uptake assays” (General Electric Company, priority 2006, dated 2010)
